Test results taken from PubChem BioAssay (NCI).
Values joined by “and” are separate entries in the source; they are usually repeats but may differ in a detail not shown here. Identical values can stand only once.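 Growth conditions: 96-well plates. Treatment: test compound, 48 hours, 5 concentrations. Analysis: linear interpolation between bracketing concentrations; unreached endpoints set to highest concentration. GI50 marks 50% less growth. Definition used: TGI = concentration required for complete inhibition of growth.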

Legend:
Assay in all cases: DTP human tumour cell line panel, 48 h
MDA-MB-435 = tested on: MDA-MB-435
CCRF-CEM leukemia = tested on: CCRF-CEM leukemia
MOLT-4 leukemia = tested on: MOLT-4 leukemia
HCT-116 colon = tested on: HCT-116 colon
NCI-H226 lung = tested on: NCI-H226 lung
BT-549 breast = tested on: BT-549 breast
ACHN renal = tested on: ACHN renal
OVCAR-5 ovarian = tested on: OVCAR-5 ovarian
PC-3 prostate = tested on: PC-3 prostate
LOX IMVI melanoma = tested on: LOX IMVI melanoma

| SMILES | GI50 (MDA-MB-435) | TGI (MDA-MB-435) | GI50 (CCRF-CEM leukemia) | TGI (CCRF-CEM leukemia) | GI50 (MOLT-4 leukemia) | TGI (MOLT-4 leukemia) | GI50 (HCT-116 colon) | TGI (HCT-116 colon) | GI50 (NCI-H226 lung) | TGI (NCI-H226 lung) | GI50 (BT-549 breast) | TGI (BT-549 breast) | GI50 (ACHN renal) | TGI (ACHN renal) | GI50 (OVCAR-5 ovarian) | TGI (OVCAR-5 ovarian) | GI50 (PC-3 prostate) | TGI (PC-3 prostate) | GI50 (LOX IMVI melanoma) | TGI (LOX IMVI melanoma) |
| --- | --- | --- | --- | --- | --- | --- | --- | --- | --- | --- | --- | --- | --- | --- | --- | --- | --- | --- | --- | --- |
| Cn1cc(C2=C(c3cc[nH]c3)C(=O)NC2=O)c2ccccc21 | 19.7 µM | > 25 µM | > 25 µM | > 25 µM | > 25 µM | > 25 µM | > 25 µM | > 25 µM | 15.5 µM | > 25 µM | > 17.9 µM | > 25 µM | > 25 µM | > 25 µM | > 25 µM | > 25 µM | > 25 µM | > 25 µM | > 25 µM | > 25 µM |
| Cc1nc2sc(C(=O)Nc3ccccc3)c(N)c2cc1C(O)c1ccccc1 (centres undefined) | 0.0308 µM | 0.102 µM | 0.234 µM |  | 0.367 µM | 25.5 µM | 0.255 µM | 12.8 µM | 1.24 µM | > 100 µM | 0.409 µM | 24.1 µM | 0.512 µM | > 60.8 µM | 0.565 µM | > 88.1 µM | 0.427 µM | > 71 µM | 0.382 µM | > 41.1 µM |
| CN(C)C(=S)/N=c1\ssc(=S)n1Cc1ccco1 |  | 1.95 µM |  | 42.3 µM |  | > 83.7 µM |  | > 72 µM |  | > 100 µM |  | 84.8 µM |  | > 100 µM |  | > 100 µM |  | > 100 µM |  | > 100 µM |
| C=C(C)C1CCC2=CC(CC3(C)OC3C3=CC(C(=O)OC)=C(C1)O3)OC2=O (centres undefined) |  | > 100 µM |  | > 100 µM |  | > 100 µM |  | > 100 µM |  | > 100 µM |  | > 100 µM |  | > 100 µM |  | > 100 µM |  | > 100 µM |  | > 100 µM |
| O=c1cc(-c2ccccc2)oc2cc(OCCCCCN3CCOCC3)cc(O)c12 | > 100 µM | > 100 µM | 94.5 µM | > 100 µM | 99.7 µM | > 100 µM | 19.2 µM | 64.8 µM | > 100 µM | > 100 µM | 77.5 µM | > 100 µM | > 100 µM | > 100 µM | 18.1 µM | 95.3 µM | 54.1 µM | > 100 µM | > 100 µM | > 100 µM |
| CCC[n+]1cc2cc3c(cc2c2c1-c1cc4c(cc1C2)OCO4)OCO3 (tested in a mixture with another compound) | 0.785 µM | 2.29 µM | 2.38 µM | 15 µM | 0.251 µM | 3.03 µM | 0.758 µM | 11.3 µM | 0.719 µM | 7.96 µM | 0.312 µM | 1.82 µM | 12.1 µM | 51.3 µM | 8.85 µM | 29 µM | 0.986 µM | 7.16 µM | 3.22 µM | 14.3 µM |
| COc1cc2c(NC3CCN(C(C)C)CC3)nc(C3CCCCC3)nc2cc1OCCCN1CCCC1 | 1.67 µM | 3.34 µM | 2.44 µM | 6.88 µM | 3.38 µM | 11.6 µM | 3.08 µM | 14.1 µM | 12.3 µM | 26.9 µM | 3.85 µM | 15.3 µM | 10.4 µM | 23 µM | 8.87 µM | 22.2 µM | 7.09 µM | 22.4 µM | 1.75 µM | 3.95 µM |
| [Cl][Hg][c]1ccc2ccccc2c1 | 1.68 µM | 3.44 µM | 0.924 µM | 9.32 µM | 2.01 µM | 15.2 µM | 3.18 µM | 7.59 µM | 14.2 µM | 36.3 µM | 1.46 µM | 2.82 µM | 4.33 µM | 11.8 µM | 7.55 µM | 16.5 µM | 3.92 µM | 11.8 µM | 0.284 µM | 1.97 µM |
| Oc1ccc(Cl)cc1Sc1cc(Cl)ccc1O | 2.79 µM | 23.9 µM and 9.08 µM | 2.59 µM | 55 µM and 12.8 µM | 3.77 µM | > 100 µM and 24.7 µM | 2.79 µM | 19.7 µM and 7.21 µM | 4.09 µM | 41.9 µM and 19.2 µM | 3 µM | 33.6 µM and 9.29 µM | 2.72 µM | 23.1 µM and 8.27 µM | 3.12 µM | 34.3 µM and 12.7 µM | 2.72 µM | 30.1 µM and 9.58 µM | 2.63 µM | 24 µM and 8.42 µM |
| Cc1ccnc2c(NC(C)CCCN)cc(O)c(O)c12 (centres undefined) | 22.3 µM | 50.6 µM | 4.62 µM | 29.3 µM | 6.61 µM | 34.5 µM | 13.8 µM | > 100 µM | 27.7 µM | > 100 µM | 36.1 µM | > 100 µM | > 100 µM | > 100 µM | 13.1 µM | 40.7 µM | 17.1 µM | 53.8 µM | 9.69 µM | 74.9 µM |
| Cc1cc(Cl)nc(N(CCCNc2ccnc3cc(Cl)ccc23)Cc2cccs2)n1 | 1.94 µM | 6.09 µM | 2.56 µM | > 100 µM | 1.77 µM | 11.8 µM | 0.437 µM | 2.64 µM | 2.56 µM | 15.5 µM | 2.52 µM | 9.13 µM | 2 µM | 11.5 µM | 1.39 µM | 13.7 µM | 1.83 µM | 13.7 µM | 1.22 µM | 2.98 µM |
| CCN(CC)S(=O)(=O)c1cccc(-c2ccc3c(NC(=O)C4CC4)n[nH]c3c2)c1 | 0.283 µM | > 6.25 µM | 1.84 µM | > 6.25 µM | 1.75 µM | > 6.25 µM | 1.92 µM | > 6.25 µM | 3.78 µM | > 6.25 µM | 1.53 µM | > 6.25 µM | 3.54 µM | > 6.25 µM | 5.69 µM | > 6.25 µM | 2.11 µM | > 6.25 µM | 2.44 µM | > 6.25 µM |
| Cc1c(NC(=O)Nc2c(Cl)cccc2Cl)c(=O)n(-c2ccccc2)n1C |  | > 100 µM |  | > 100 µM |  | > 100 µM |  | > 100 µM |  | > 100 µM |  | > 100 µM |  | > 100 µM |  | > 100 µM |  | > 100 µM |  | > 100 µM |
